From patent US12612386B2, “Heteroaryl-triazole compounds as pesticides” (Bayer Aktiengesellschaft, priority 2020, dated 2026)

Legend:
Format in all cases: in vivo
[1] = tested on: larvae of the banded cucumber beetle (Diabrotica balteata); test: Diabrotica balteata spray test; conditions: 168 h, 100 g/ha (=32 μg/well), after 7 days, read-out: efficacy (seedling growth)
Experimental: Diabrotica balteata—Spray Test
(§1) • Solvent: 78.0 parts by weight of acetone • 1.5 parts by weight of dimethylformamide • Emulsifier: alkylarylpolyglycol ether
(§2) To produce a suitable preparation of active compound, 1 part by weight of active compound is mixed with the stated amount of solvent, and the concentrate is diluted with water, containing an emulsifier concentration of 1000 ppm, to the desired concentration. Further test concentrations are prepared by dilution with emulsifier containing water.
Soaked wheat seeds (Triticum aestivum) are placed in a multiple well plate filled with agar and some water and are incubated for 1 day to germinate (5 seeds per well). The germinated wheat seeds are sprayed with a test solution containing the desired concentration of the active ingredient. Afterwards each unit is infected with 10-20 larvae of the banded cucumber beetle (Diabrotica balteata).
After 7 days efficacy in % is determined. 100% means all the seedlings have grown up like in the untreated, uninfected control; 0% means none of the seedlings have grown.

[2] = tested on: fall armyworm larvae (Spodoptera frugiperda); test: whole plant or invertebrate; conditions: 168 h
Experimental: Spodoptera frugiperda—Spray Test
• Solvent: 78.0 parts by weight acetone • 1.5 parts by weight dimethylformamide • Emulsifier: alkylarylpolyglycol ether
To produce a suitable preparation of active compound, 1 part by weight of active compound is mixed with the stated amount of solvents and is diluted with water, containing an emulsifier concentration of 1000 ppm, to the desired concentration. Further test concentrations are prepared by dilution with emulsifier containing water.
Maize (Zea mays) leaf sections are sprayed with a preparation of the active ingredient of the desired concentration. Once dry, the leaf sections are infested with fall armyworm larvae (Spodoptera frugiperda).
After 7 days mortality in % is determined. 100% means all caterpillars have been killed and 0% means none of the caterpillars have been killed.
Spodoptera frugiperda—Spray Test (SPODFR)
After the specified period of time, mortality in % is determined. 100% means all caterpillars have been killed and 0% means none of the caterpillars have been killed.

[3] = tested on: larvae of the southern green stink bug (Nezara viridula); test: whole plant or invertebrate; conditions: 96 h
Experimental: Nezara viridula—Spray Test
as §1, §2
Barley plants (Hordeum vulgare) are sprayed with a test solution containing the desired concentration of the active ingredient and are infested with larvae of the southern green stink bug (Nezara viridula).
After 4 days mortality in % is determined. 100% means all the stink bugs have been killed; 0% means none of the stink bugs have been killed.

| SMILES | pest or weed control at 32 µg/disc, 100 g/ha [1] | mortality at 100 g/ha [2] | mortality at 100 g/ha [3] | mortality at 500 g/ha [3] |
| --- | --- | --- | --- | --- |
| C[C@H](NC(=O)c1cc(C(F)(F)F)cc(C(F)(F)F)c1)c1nc(C2CC2)nn1-c1cc(C(N)=O)ncn1 [I-105] | 100% | 100% | – | – |
| Cc1nc([C@H](C)NC(=O)c2cc(Br)cc(C#N)c2)n(-c2cc(C(N)=O)ncn2)n1 [I-127] | 100% | 100% | 90% | 100% |
| C[C@H](NC(=O)c1cc(OC(F)(F)F)cc(C2CC2)c1)c1nc(C2CC2)nn1-c1cc(C(N)=O)ncn1 [I-146] | 100% | 100% | – | – |
| C[C@H](NC(=O)c1cc(OC(F)F)cc(C2CC2)c1)c1nc(C2CC2)nn1-c1cc(C(N)=O)ncn1 [I-153] | 100% | 100% | – | – |
| Cc1nc([C@H](C)NC(=O)c2cc(F)cc(C#N)c2)n(-c2cc(C(N)=O)ncn2)n1 [I-96] | – | – | – | 100% |
| C[C@H](NC(=O)c1cc(C(F)(F)F)cc(S(C)(=O)=O)c1)c1nc(C2CC2)nn1-c1cc(C(N)=O)ncn1 [I-108] | – | 100% | – | – |
| Cc1nc([C@H](C)NC(=O)c2cc(Br)cc(OC(F)F)c2)n(-c2cc(C#N)ncn2)n1 [I-26] | 100% | 100% | – | – |
| CC(NC(=O)c1cc(OC(F)(F)F)cc(S(=O)(=O)C2CC2)c1)c1ncnn1-c1cc(C#N)ncn1 (stereo not drawn) [I-9] | – | 100% | – | – |
| C[C@H](NC(=O)c1cc(Br)cc(Br)c1)c1nc(C2CC2)nn1-c1cc(C(=O)N(C)C)ncn1 [I-158] | 100% | 100% | – | – |
| C[C@H](NC(=O)c1cc(OC(F)(F)F)cc(C2CC2)c1)c1nc(C2CC2)nn1-c1cc(C#N)ncn1 [I-17] | 100% | – | – | – |
| C[C@H](NC(=O)c1cc(Cl)cc(OC(F)(F)F)c1)c1nc(C2CC2)nn1-c1cc(C(N)=O)ncn1 [I-106] | 100% | 100% | – | – |
| C[C@H](NC(=O)c1cc(Br)cc(Br)c1)c1nc(C2CC2)nn1-c1cc(C(N)=O)ncn1 [I-145] | 100% | 100% | – | – |
| C[C@H](NC(=O)c1cc(OC(F)(F)F)cc(S(=O)(=O)C(F)F)c1)c1nc(C2CC2)nn1-c1cc(C(N)=O)ncn1 [I-144] | – | 100% | – | – |
| C[C@H](NC(=O)c1cc(OC(F)(F)F)cc(S(=O)(=O)C(F)(F)F)c1)c1ncnn1-c1cc(C#N)ncn1 [I-91] | 100% | 100% | – | – |
| C[C@H](NC(=O)c1cc(Cl)cc(S(=O)(=O)c2ccc(Cl)cc2)c1)c1ncnn1-c1cc(C#N)ncn1 [I-11] | 80% | 100% | – | – |
| CC(C)N(C)C(=O)c1cc(-n2ncnc2[C@H](C)NC(=O)c2cccc(OC(F)(F)F)c2)ncn1 [I-111] | – | 100% | – | – |
| C[C@H](NC(=O)c1cc(C(F)F)cc(C(F)F)c1)c1nc(C2CC2)nn1-c1cc(C(N)=O)ncn1 [I-147] | – | 100% | – | 100% |
| CNC(=O)c1cc(-n2nc(C)nc2[C@H](C)NC(=O)c2cc(Cl)cc(S(C)(=O)=O)c2)ncn1 [I-62] | – | 83% | – | 100% |
| CNC(=O)c1cc(-n2nc(C3CC3)nc2[C@H](C)NC(=O)c2cc(OC(F)(F)F)cc(S(C)(=O)=O)c2)ncn1 [I-155] | – | 100% | – | 100% |
| C[C@H](NC(=O)c1cc(Cl)cc(OC(F)(F)C(F)(F)I)c1)c1ncnn1-c1cc(C(N)=O)ncn1 [I-114, 6-(5-{(1S)-1-[3-chloro-5-(1,1,2,2-tetrafluoro-2-iodoethoxy)benzamido]ethyl}-1H-1,2,4-triazol-1-yl)pyrimidine-4-carboxamide] | 100% | 100% | – | – |

| SMILES | pest or weed control at 32 µg/disc, 100 g/ha [1] | mortality at 100 g/ha [2] | mortality at 100 g/ha [3] | mortality at 500 g/ha [3] |
| --- | --- | --- | --- | --- |
| C[C@H](NC(=O)c1cc(Cl)cc(S(=O)(=O)C(F)F)c1)c1nc(C2CC2)nn1-c1cc(C(N)=O)ncn1 [I-151] | – | 83% | – | – |
| C[C@H](NC(=O)c1cc(OC(F)(F)F)cc(S(C)(=O)=O)c1)c1nc(C2CC2)nn1-c1cc(C#N)ncn1 [I-14] | 100% | – | – | – |
| C[C@H](NC(=O)c1cc(S(=O)(=O)C(F)(F)F)cc(S(=O)(=O)C(F)(F)F)c1)c1nc(C2CC2)nn1-c1cc(C(N)=O)ncn1 [I-107] | 100% | 100% | – | – |
| C[C@H](NC(=O)c1cc(OC(F)(F)F)cc(C2(C#N)CC2)c1)c1nc(C2CC2)nn1-c1cc(C#N)ncn1 [I-43] | 80% | 100% | – | – |
| Cc1nc([C@H](C)NC(=O)c2cc(OC(F)F)cc(OC(F)F)c2)n(-c2cc(C(=O)N(C)C(C)C)ncn2)n1 [I-100] | – | 83% | – | – |
| C[C@H](NC(=O)c1cc(OC(F)(F)F)cc(S(=O)(=O)C(F)(F)F)c1)c1nc(C2CC2)nn1-c1cc(C(=O)N(C)C)ncn1 [I-157] | 100% | 100% | – | – |
| C[C@H](NC(=O)c1cc(Br)cc(OC(F)(F)F)c1)c1nc(C2CC2)nn1-c1cc(C(N)=O)ncn1 [I-13, 6-[5-[(1S)-1-[[3-bromo-5-(trifluoromethoxy)benzoyl]amino]ethyl]-3-cyclopropyl-1,2,4-triazol-1-yl]pyrimidine-4-carboxamide] | 100% | 100% | – | – |
| C[C@H](NC(=O)c1cc(Cl)cc(S(=O)(=O)C(F)(F)F)c1)c1nc(C2CC2)nn1-c1cc(C(N)=O)ncn1 [I-109] | 100% | 100% | – | – |
| Cc1nc([C@H](C)NC(=O)c2cc(Cl)cc(S(=O)(=O)C(F)(F)F)c2)n(-c2cc(C#N)ncn2)n1 [I-24] | 100% | 100% | – | – |
| C[C@H](NC(=O)c1cc(OC(F)(F)F)cc(S(C)(=O)=O)c1)c1nc(C2CC2)nn1-c1cc(C(N)=O)ncn1 [I-47] | 100% | 100% | – | – |
| C[C@H](NC(=O)c1cc(Br)cc(OC(F)F)c1)c1nc(C2CC2)nn1-c1cc(C#N)ncn1 [I-16] | 100% | – | – | – |
| C[C@H](NC(=O)c1cc(C#N)cc(OC(F)(F)F)c1)c1nc(C2CC2)nn1-c1cc(C#N)ncn1 [I-53] | 100% | – | – | – |
| CSc1cc(OC(F)F)cc(C(=O)N[C@@H](C)c2nc(C3CC3)nn2-c2cc(C(N)=O)ncn2)c1 [I-137] | – | 100% | – | – |
| Cc1nc([C@H](C)NC(=O)c2cc(Cl)cc(C#N)c2)n(-c2cc(C(N)=O)ncn2)n1 [I-131] | 100% | – | – | 100% |
| C[C@H](NC(=O)c1cc(Br)cc(OC(F)(F)F)c1)c1nc(C2CC2)nn1-c1cc(C#N)ncn1 [I-15, 3-bromo-N-[(1S)-1-[2-(6-cyanopyrimidin-4-yl)-5-cyclopropyl-1,2,4-triazol-3-yl]ethyl]-5-(trifluoromethoxy)benzamide] | 100% | 100% | – | – |
| Cc1nc([C@H](C)NC(=O)c2cc(Cl)cc(S(=O)(=O)C(F)F)c2)n(-c2cc(C#N)ncn2)n1 [I-27] | 100% | 100% | – | – |
| C[C@H](NC(=O)c1cc(Br)cc(C2CC2(Cl)Cl)c1)c1ncnn1-c1cc(C#N)ncn1 (stereo partly drawn) [I-54] | 100% | 100% | – | – |
| C[C@H](NC(=O)c1cc(OC(F)(F)F)cc(OC(F)(F)F)c1)c1nc(C2CC2)nn1-c1cc(C(=O)N(C)C)ncn1 [I-165] | 100% | 100% | – | – |
| C[C@H](NC(=O)c1cc(Br)cc(OC(F)F)c1)c1nc(C2CC2)nn1-c1cc(C(N)=O)ncn1 [I-104] | 100% | 100% | – | – |
| CC(C)N(C)C(=O)c1cc(-n2ncnc2[C@H](C)NC(=O)c2cc(Br)cc(OC(F)(F)C(F)F)c2)ncn1 [I-123] | – | 100% | – | – |
